# From patent US9540325B2, “N1-cyclic amine-N5-substituted phenyl biguanide derivatives, methods of preparing the same and pharmaceutical composition comprising the same” (Immunomet Therapeutics, Inc., priority 2011, dated 2017)
# Assays:
# HCT116 cells = experiment: Measurement of effect of inhibiting cancer cell proliferation (MTT); assay type: cell-based, human; details: Homo sapiens; for inhibition at 100 µM: HCT-116, 100 μM, 48 hours, read-out: Cell Growth Inhibition (%) at 100 μM; for GI50: HCT-116, 48 h
# Source text: HCT116 cells derived from human colorectal cancer (commercially available from the Korean Cell Line Bank) were used, and the effect of inhibiting cancer cell proliferation of the biguanide derivative was confirmed by measuring the concentration value (cell growth inhibition concentration, GIC50) at which cell growth was inhibited by 50% using a 3-(4,5-dimethylthiazol-2-yl)-2,5-diphenyltetrazolium bromide (MTT) reagent.
# First, HCT116 cells were put on a 96-well plate and cultured in a DMEM medium containing 10% fetal bovine serum for 16 hours so that the cellcount in each well was approximately 5,000. Subsequently, to obtain the GIC50 value of each compound, culture media were treated with 100 μM, 25 μM, 6.25 μM, 1.56 μM or 0.39 μM of the compound, and then cultured for 48 hours. Metformin hydrochloride was used as the control, and the culture media were treated with 25, 12.5, 2.5, 0.5, 0.1 mM metformin hydrochloride, and then tested in the same manner as described in the derivatives synthesized in the examples. In order to determine whether the cells survived after treatment with the compounds, MTT was added to the culture media which were then cultured for another 3 hours. Formed formazane crystals were dissolved using dimethyl sulfoxide (DMSO), and the absorbance of the resulting solution was measured at 560 nm. After the 48-hour culture, […] was indicated as cell viability (%) according to each treated concentration. A cell viability curve graph was plotted and the concentration (GIC50) value of the compound at which the growth was inhibited by 50% was calculated to confirm the inhibition effect of cancer cell proliferation. Also, the cell growth viability (%) when the concentration of the treated biguanide derivative and the metformin hydrochloride as the control were 100 μM was shown.
# AMPKα = experiment: Measurement of AMPK activation effect (AMPKα Thr172 phosphorylation immunoassay) in MCF7 cells; assay type: cell-based, human; details: 24 hours; for AMPK activation effect at 50 μM (%) / AMPK activation effect at 10 μM (%): relative to untreated cells; for AMPK activation effect AC150: concentration at which AMPK activation reached 150%
# Experimental: MCF7 cells derived from human breast cancer cells (commercially available from the Korean Cell Line Bank) were used, and the AMPK activation effect of the biguanide derivative was confirmed using an AMPKα immunoassay kit (Invitrogen, Catalog No. KHO0651).
# MCF7 cells were cultured in a DMEM medium supplemented with 10% fetal bovine serum. Thereafter, the cultured MCF7 cells were put into a 6-well plate with approximately 5×10^5 cells per well and cultured in an incubator supplied with 5% CO2. Culture media were treated with the derivatives synthesized in the examples at contents of 5, 10 and 50 μM, and then cultured for 24 hours. Metformin hydrochloride was used as the control, and the culture media were treated with 0.05, 0.5, 1, 2, 5 and 10 mM metformin hydrochloride, and then tested in the same manner as described in the derivatives synthesized in the examples. Subsequently, the cells were lysed according to a method presented in the operation manual of the AMPKα immunoassay kit, and 20 μg of a cell lysate was then yielded through protein assay. Thereafter, the AMPK activation effect was obtained by determining the degree of phosphorylation of 172nd threonine residue (Thr172) of the AMPKα from the cell lysate according to the method presented in the operation manual of the AMPKα immunoassay kit. […] A curve graph showing AMPK activation according to the concentration of the treated compounds was plotted based on the obtained AMPKα activation results, the concentration (activation concentration 150, AC150) value of the compound whose AMPK activation reached 150% was calculated using a GraphPad Prism 5.0 program, and the degrees of AMPK activation were obtained when concentrations of the treated biguanide derivatives were 10 μM and 50 μM and the metformin hydrochloride was 50 μM
Compound,melting point [°C],inhibition at 100 µM (HCT116 cells) [%],GI50 (HCT116 cells) [µM],AMPK activation effect at 50 μM (%) (AMPKα),AMPK activation effect AC150 (AMPKα) [µM],AMPK activation effect at 10 μM (%) (AMPKα)
"Cl.N=C(NC(=N)N1CCCCC1)Nc1cccc(F)c1 [Example 16, N1-piperidine-N5-(3-fluoro)phenyl biguanide hydrochloride]",201 to 202,67.2,72.4,378,9.9,–
"Cl.N=C(NC(=N)N1CCCCC1)Nc1cccc(CO)c1 [Example 12, N1-piperidine-N5-(3-hydroxymethyl)phenyl biguanide hydrochloride]",225 to 227,17.6,> 100,149,>50,107
"Cl.N=C(NC(=N)N1CCCCC1)Nc1ccc(-c2nnn[nH]2)cc1 [Example 40, N1-piperidine-N5-(4-(1H-tetrazole-5-yl))phenyl biguanide hydrochloride]",241 to 242,0.9,> 100,55,>50,41
"Cl.N=C(NC(=N)N1CCCCC1)Nc1cc(F)c(F)c(F)c1 [Example 68, N1-piperidine-N5-(3,4,5-trifluoro)phenyl biguanide hydrochloride]",248 to 249,97.6,13.8,–,7.2,197
"Cl.N=C(NC(=N)N1CCCCC1)Nc1cc(Cl)cc(Cl)c1 [Example 61, N1-piperidine-N5-(3,5-dichloro)phenyl biguanide hydrochloride]",230 to 231,97.7,7.1,–,3.3,239
"Cc1cccc(NC(=N)NC(=N)N2CCCCC2)c1.Cl [Example 9, N1-piperidine-N5-(3-methyl)phenyl biguanide hydrochloride]",239 to 240,79.1,13.4,255,12.4,149
"Cl.N=C(NC(=N)N1CCCCC1)Nc1ccc(F)c(F)c1 [Example 59, N1-piperidine-N5-(3,4-difluoro)phenyl biguanide hydrochloride]",257 to 258,97.8,28.1,1036,3.6,269
"Cl.N=C(NC(=N)N1CCCC1)Nc1cccc(C(F)(F)F)c1 [Example 23, N1-pyrrolidine-N5-(3-trifluoromethyl)phenyl biguanide hydrochloride]",286 to 287,97.6,38.9,578,4.4,199
"Cl.N=C(NC(=N)N1CCCCC1)Nc1cccc(OC(F)(F)F)c1 [Example 29, N1-piperidine-N5-(3-trifluoromethoxy)phenyl biguanide hydrochloride]",264 to 266,98,5.9,–,1.1,400
"Cl.N=C(NC(=N)N1CCCCC1)Nc1cc(F)cc(F)c1 [Example 60, N1-piperidine-N5-(3,5-difluoro)phenyl biguanide hydrochloride]",243 to 244,97.6,48.2,576,8.2,144
